Series [1] deals with CUS-exposed mice. The experiment in a line: Porsolt forced swim test. The series is classed as in vivo.
Experimental: Subjects were exposed to chronic unpredictable stress (CUS), consisting of daily exposure to two stressors in a random order over a 5-week period. […] The list of CUS stressors included: cage shaking for 1 h with loud music and lights, on, lights on during the entire night (12 h), lights-off for 3 h during the daylight phase, flashing (stroboscopic) light for 6 h, placement in 4° C. cold room for 1 h, mild restraint (in small cages) for 2 h, 45° cage tilt for 14 h, wet cage for 14 h, exposure to fox, ferret, bobcat, or coyote smell for 2 h, noise in the room for 3 h, and water deprivation for 12 h during the dark period.
Mice were placed in 20 cm diameter glass cylinder filled to 10 cm with 21° C. water and their behavior was analyzed for five min. The time spent in immobility, defined as the absence of all movement except motions required to maintain the animal's head above the water, and the latency to first immobility episode were recorded using an in-house computerized software.
Series [2] deals with DG microglia. The experiment in a line: DG microglia number and morphology after unpredictable stress (US/CUS). The series is classed as in vivo, mice. The protocol:
(§1) Subjects were exposed to chronic unpredictable stress (CUS), consisting of daily exposure to two stressors in a random order over a 5-week period. The effect of a shorter period of unpredictable stress was examined by exposing mice to various combinations of 2-3 of the same stressors over a period of 2 days. The list of CUS stressors included: cage shaking for 1 h with loud music and lights, on, lights on during the entire night (12 h), lights-off for 3 h during the daylight phase, flashing (stroboscopic) light for 6 h, placement in 4° C. cold room for 1 h, mild restraint (in small cages) for 2 h, 45° cage tilt for 14 h, wet cage for 14 h, exposure to fox, ferret, bobcat, or coyote smell for 2 h, noise in the room for 3 h, and water deprivation for 12 h during the dark period.
Animals were perfused trans-cardially with cold PBS followed by 4% paraformaldehyde in 0.1 M PBS, and the brains were quickly removed and placed in 4% paraformaldehyde. After 24 h the brains were placed in 30% sucrose solution in PBS and then frozen in OCT.
In some experiments microglia were visualized using an antibody to the microglia activation marker ionized calcium-binding adapter molecule-1 (Iba-1). Brain sections were first fixed in 2% paraformaldehyde, and after 3 PBS washes they were incubated over-night in 3% normal goat serum in 5% BSA with the primary antibody (rabbit anti Iba-1 1:220, Wako, Japan) at 4° C. Sections were then incubated with the secondary antibody (goat anti rabbit, 1:200; Invitrogen) for 1 hour at RT and counter-stained with DAPI (Sigma, Israel).
(§2) Images were captured using Nikon Eclipse fluorescent microscope and CI Nikon confocal microscope and camera. The number of GFP-labeled microglia (and in some studies the number of BrdU-labeled microglia and other cells), as well and the microglial soma area were automatically measured at ×10 magnification in a defined area exclusively containing the entire Dentate Gyrus or prelimbic cortex, for each slide, using Nikon Imaging Elements Software (NIS-Elements). Microglia processes length was measured by capturing images at 40× magnification and by manual tracing of the processes of 4 randomly selected cells/section their processes using the NIS Elements software.

The test system of series [3] is CUS-exposed mice. The experiment in a line: CUS model, overall depressive-like behavior. The format is in vivo. The protocol: as §1
In series [4] the test system is CUS-exposed mice. The experiment in a line: Social exploration test. The note with it: for social exploration time: 5-weeks CUS-exposed mice treated for 2 additional weeks of CUS. The series is classed as in vivo. Here is the method: as §1, with “dark period. Each subject was placed in an observation cage and allowed to habituate to the cage for 15 min, following which a male juvenile was placed in the cage. Social exploration, defined as the time of near contact between the nose of the subject and the juvenile conspecific, was then recorded for three minutes, using computerized in-house software.” for “dark period.”

Series [5] has as its system CUS-exposed mice. Put plainly: Sucrose preference test. The series is classed as in vivo. The protocol: as §1, with “dark period. Following baseline adaptation to sucrose for several days, animals were presented in the beginning of the dark circadian phase with two graduated drinking tubes, one containing tap water and the other 2% sucrose solution for 3 hr. Sucrose preference was calculated as the percent of sucrose consumption out of the total drinking volume.” for “dark period.”

The test system of series [6] is DG cells. Put plainly: BrdU labeling of DG cells (neurogenesis / proliferation). The note with it: M-CSF 100 μg/kg i.p. daily for 5 days. The series is classed as in vivo, mice. Here is the method:
BrdU immunofluorescent staining was performed on 8 μm frozen brain sections, fixated in 50% formamide/2×SCC (0.3M NaCl and 0.03 M sodium citrate) for 2 hours at 65° C. After one wash with 2×SCC, sections were incubated in 2 N HCl for 30 minutes at 37° C. Sections were then rinsed in 0.1 M boric acid at pH 8.5 and washed 3 times in PBS, following which they were incubated in 3% normal goat serum in 1% BSA/0.1% Triton for 30 min at room temperature and then incubated with rat monoclonal anti-BrdU antibody (1:200, AbD serotec) for 48 hours at 4° C. […]
as §2

[7] abbreviates: 5-weeks CUS-exposed mice treated for 2 additional weeks of CUS.
[8] abbreviates: 5-weeks CUS-exposed mice treated for 2 additional weeks of CUS (imipramine, minocycline in drinking water; GM-CSF i.p. 3 time/week).
Where [9] appears, read: 5-weeks CUS, drug beginning two days before and throughout CUS.
The mark [10] stands for this setting: CUS-exposed mice, M-CSF 100 μg/kg i.p. daily for 5 days.

With `CN(C)CCCN1c2ccccc2CCc2ccccc21` [imipramine, reference compound], the floating time result in series [1] (setting [7]) was “showed no difference from non-stressed controls”. The DG microglia number entry in series [2] (setting [8]) is “no differences from any of the groups”. Moreover, in series [2] (setting [9]), the hippocampal microglia number result is on record as “blocked the CUS-induced decline in hippocampal microglia number”, the microglia processes length result was “blocked the CUS-induced decline” and the microglia soma size entry is recorded as “blocked the CUS-induced decline”. Moreover, the “number of hippocampal (DG) microglia” value in series [2] (2 days of US exposure, drug via drinking water beginning 2 days before US initiation (minocycline 40, imipramine 20 mg/kg/day)) was “completely reversed the increase in hippocampal microglia”. Besides, the “effect on established CUS-induced depressive-like behavior” value in series [3] (administration to mice with established CUS-induced depressive-like behavior) is “produced minimal beneficial effects”. Also, the social exploration time result in series [4] is given as “further reductions were evident”. Besides, in series [4] (setting [9]), the social exploration entry is “prevented the CUS-induced reductions”. Also, in series [5] (setting [9]), the sucrose preference entry is on record as “prevented the CUS-induced reductions in sucrose preference”.
For “IL-1β: microglia-stimulating cytokine interleukin-1β, given intra-hippocampally”, the “microglia number and morphology” value in series [2] (acute intra-hippocampal administration in WT mice) was “mimicked the effects of short-term US on microglia number and morphology”.
With GM-CSF, in series [1] (setting [7]), the floating time result was “showed no difference from non-stressed controls”. For the same molecule, the DG microglia number result in series [2] (setting [8]) was “significantly greater number of microglia as compared with the control CUS-exposed mice”. Moreover, the social exploration time result in series [4] is “induced an elevation in the social exploration time”. The sucrose preference result in series [5] (setting [7]) is “completely reversed the suppressive effects of CUS on sucrose preference”.

B1: M-CSF: Macrophage colony-stimulating factor, homodimer glycoprotein; microglia activator (protein, UniProt P09603 33-554, looked up)
Macrophage colony-stimulating …: EEVSEYCSHMIGSGHLQSLQRLIDSQMETSCQITFEFVDQEQLKDPVCYLKKAFLLVQDIMEDTMRFRDNTPNAIAIVQLQELSLRLKSCFTKDYEEHDKACVRTFYETPLQLLEKVKNVFNETKNLLDKDWNIFSKNCNNSFAECSSQDVVTKPDCNCLYPKAIPSSDPASVSPHQPLAPSMAPVAGLTWEDSEGTEGSSLLPGEQPLHTVDPGSAKQRPPRSTCQSFEPPETPVVKDSTIGGSPQPRPSVGAFNPGMEDILDSAMGTNWVPEEASGEASEIPVPQGTELSPSRPGGGSMQTEPARPSNFLSASSPLPASAKGQQPADVTGTALPRVGPVRPTGQDWNHTPQKTDHPSALLRDPPEPGSPRISSLRPQGLSNPSTLSAQPQLSRSHSSGSVLPLGELEGRRSTRDRRSPAEPEGGPASEGAARPLPRFNSVPLTDTGHERQSEGSFSPQLQESVFHLLVPSVILVLLAVGGLLFYRWRRRSHQEPQRADSPLEQPEGSPLTQDDRQVELPV
For B1, the “generation of new (BrdU-labeled) DG cells that are not microglia” value in series [6] (CUS-exposed mice) is “marked increase in the generation of new (BrdU-labeled) DG cells that are not microglia”. For the same molecule, the “microglia proliferation (GFP microglia co-labeled for BrdU)” value in series [6] was “overall increase in microglia proliferation”. In series [1] (setting [10]), the floating time entry is on record as “reversed” and the “latency to first float” value was “did not reach statistical significance”. The DG microglia number entry in series [2] (control and CUS-exposed mice, M-CSF 100 μg/kg i.p. daily for 5 days) is listed as “overall increase in DG microglia number, completely normalizing microglia number in CUS-exposed mice”. Besides, the depressive-like behavioral symptoms entry in series [3] (CUS-exposed mice) is given as “completely reversed the depressive symptoms after a few days of treatment”. Further, the depressive symptoms result in series [3] (non-stressed mice) is “did not cause depressive symptoms in non-stressed mice”. Also, the social exploration entry in series [4] (setting [10]) is “completely reversed the suppressive effects of CUS”. In addition, the sucrose preference entry in series [5] (setting [10]) is on record as “completely reversed the suppressive effects of CUS on sucrose preference”.

The values above are taken from US10626178B2, “Treatment of mood and stress related disorders” (priority 2013, dated 2020).
